Measured values from US10774064B2 (Cadent Therapeutics, Inc., priority 2016, dated 2020).

Each molecule was assayed against T1, small-conductance Ca2+-activated K+ channels (SK channels, subtype 2) (Homo sapiens, UniProt Q9H2S1) (assay: whole-cell patch-clamp of ionic current through SK2 channels in HEK293 cells (SC100)). Conditions: concentration that increases the basal current by 100%; HEK293 cells expressing SK2 channels.
T1 construct: expressed in transfected cells; host or cells: HEK293
Type: cell-based
Method in brief: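 Whole-cell patch-clamp recording of current in HEK293 cells expressing SK2 channels. SC100 is the compound concentration that increases basal current by 100%.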
`COCc1cc(NC2CCC(F)(F)CC2)nc(-n2nc(C)cc2C)n1` [Compound 193] was tested, and the SC100 was “+ (+ means >1 uM)”.
For `COCC1CN(c2cc(NC3CCC(F)(F)CC3)nc(-n3nc(C)cc3C)n2)CCO1` (stereo not shown) [Compound 194, N-(4,4-difluorocyclohexyl)-2-(3,5-dimethyl-1H-pyrazol-1-yl)-6-(2-(methoxymethyl)morpholino)pyrimidin-4-amine], the SC100 was “++ (++ means 200 nM-1000 nM)”.
In the case of `Cc1cc(C)n(-c2cc(CN)cc(NC3CCC(F)(F)CC3)n2)n1` [Compound 195, 4-(aminomethyl)-N-(4,4-difluorocyclohexyl)-6-(3,5-dimethyl-1H-pyrazol-1-yl)pyridin-2-amine], the SC100 was “++ (++ means 200 nM-1000 nM)”.
With `Cc1cc(NC2CCC(F)(F)CC2)nc(-n2cc(F)cn2)n1` [Compound 196, N-(4,4-difluorocyclohexyl)-2-(4-fluoro-1H-pyrazol-1-yl)-6-methylpyrimidin-4-amine] the SC100 was “+ (+ means >1 uM)”.
For `CCc1ccn(-c2nc(C)cc(NC3CCC(F)(F)CC3)n2)n1` [Compound 197, N-(4,4-difluorocyclohexyl)-2-(3-ethyl-1H-pyrazol-1-yl)-6-methylpyrimidin-4-amine], the SC100 was “++ (++ means 200 nM-1000 nM)”.
For `Cc1cc(C)n(-c2nc(NC3CCC(F)(F)CC3)cc([C@H](C)O)n2)n1` [Compound 199, (+)1-(6-((4,4-difluorocyclohexyl)amino)-2-(3,5-dimethyl-1H-pyrazol-1-yl)pyrimidin-4-yl)ethan-1-ol], the SC100 was “++ (++ means 200 nM-1000 nM)”.
For `Cc1cc(NC2CCC(F)(F)CC2)nc(-n2ccc(C(F)(F)F)n2)n1` [Compound 200, N-(4,4-difluorocyclohexyl)-6-methyl-2-(3-(trifluoromethyl)-1H-pyrazol-1-yl)pyrimidin-4-amine], the SC100 was “++ (++ means 200 nM-1000 nM)”.
`Cc1cc(NC2CCC(F)(F)CC2)nc(-n2nc(C)c(F)c2C)n1` [Compound 201, N-(4,4-difluorocyclohexyl)-2-(4-fluoro-3,5-dimethyl-1H-pyrazol-1-yl)-6-methylpyrimidin-4-amine] was tested, and the SC100 was “++ (++ means 200 nM-1000 nM)”.
In the case of `Cc1cc(NC2CCC(F)(F)CC2)nc(-n2ccc(C(C)O)n2)n1` (stereo not shown) [Compound 202, 1-(1-(4-((4,4-difluorocyclohexyl)amino)-6-methylpyrimidin-2-yl)-1H-pyrazol-3-yl)ethan-1-ol], the SC100 was “+ (+ means >1 uM)”.
In the case of `Cc1cc(NC2CCC(F)(F)CC2)nc(-n2ccc(C3CC3)n2)n1` [Compound 203, 2-(3-cyclopropyl-1H-pyrazol-1-yl)-N-(4,4-difluorocyclohexyl)-6-methylpyrimidin-4-amine], the SC100 was “++ (++ means 200 nM-1000 nM)”.
With `Cc1cc(NC2CCC(F)(F)CC2)nc(-n2ccc(CO)n2)n1` [Compound 204, (1-(4-((4,4-difluorocyclohexyl)amino)-6-methylpyrimidin-2-yl)-1H-pyrazol-3-yl)methanol] the SC100 was “+ (+ means >1 uM)”.
`Cc1cc(C)n(-c2cc(C(C)(C)O)cc(NC3CCC(F)(F)CC3)n2)n1` [Compound 206, 2-(2-((4,4-difluorocyclohexyl)amino)-6-(3,5-dimethyl-1H-pyrazol-1-yl)pyridin-4-yl)propan-2-ol] was tested, and the SC100 was “+ (+ means >1 uM)”.
`Cc1cc(C)n(-c2cc(C(C)O)cc(NC3CCC(F)(F)CC3)n2)n1` (stereo not shown) [Compound 207, 1-(2-((4,4-difluorocyclohexyl)amino)-6-(3,5-dimethyl-1H-pyrazol-1-yl)pyridin-4-yl)ethan-1-ol] was tested, and the SC100 was “+ (+ means >1 uM)”.
In the case of `Cc1cc(NC2CCC(F)(F)CC2)nc(-n2ccc(CC#N)n2)n1` [Compound 208, 2-(1-(4-((4,4-difluorocyclohexyl)amino)-6-methylpyrimidin-2-yl)-1H-pyrazol-3-yl)acetonitrile], the SC100 was “++ (++ means 200 nM-1000 nM)”.
With `Cc1cc(C)n(-c2nc(NC3CCC(F)(F)CC3)cc(OC(F)F)n2)n1` [Compound 209, N-(4,4-difluorocyclohexyl)-6-(difluoromethoxy)-2-(3,5-dimethyl-1H-pyrazol-1-yl)pyrimidin-4-amine] the SC100 was “+ (+ means >1 uM)”.
`Cc1ccn(-c2nc(NC3CCC(F)(F)CC3)cc(OC3CN(C(=O)C(C)C)C3)n2)n1` [Compound 210, 1-(3-((6-((4,4-difluorocyclohexyl)amino)-2-(3-methyl-1H-pyrazol-1-yl)pyrimidin-4-yl)oxy)azetidin-1-yl)-2-methylpropan-1-one] was tested, and the SC100 was “++ (++ means 200 nM-1000 nM)”.
`Cc1ccn(-c2nc(NC3CCC(F)(F)CC3)cc(OC3CN(C(=O)C(C)(C)C)C3)n2)n1` [Compound 211, 1-(3-((6-((4,4-difluorocyclohexyl)amino)-2-(3-methyl-1H-pyrazol-1-yl)pyrimidin-4-yl)oxy)azetidin-1-yl)-2,2-dimethylpropan-1-one] was tested, and the SC100 was “+++ (+++ means <200 nM)”.
In the case of `Cc1cc(NC2CCC(F)(F)CC2)nc(-n2ccc(C#N)n2)n1` [Compound 212, 1-(4-((4,4-difluorocyclohexyl)amino)-6-methylpyrimidin-2-yl)-1H-pyrazole-3-carbonitrile], the SC100 was “+ (+ means >1 uM)”.
In the case of `Cc1cc(C)n(-c2nc(NC3CCC(F)(F)C3)cc(C(C)(C)O)n2)n1` (stereo not shown) [Compound 214, 2-(6-((3,3-difluorocyclopentyl)amino)-2-(3,5-dimethyl-1H-pyrazol-1-yl)pyrimidin-4-yl)propan-2-ol], the SC100 was “+ (+ means >1 uM)”.
For `Cc1cc(NC2CCC(F)(F)CC2)nc(-n2ccc(C(C)(C)O)n2)n1` [Compound 215, 2-(1-(4-((4,4-difluorocyclohexyl)amino)-6-methylpyrimidin-2-yl)-1H-pyrazol-3-yl)propan-2-ol], the SC100 was “+ (+ means >1 uM)”.
With `Cc1cc(NC2CCC(F)(F)CC2)nc(-n2ccc(C(F)F)n2)n1` [Compound 216] the SC100 was “++ (++ means 200 nM-1000 nM)”.
`Cc1cc(C)n(-c2nc(NC3CCC(F)(F)C3)cc(C3CC3)n2)n1` (stereo not shown) [Compound 217, 6-cyclopropyl-N-(3,3-difluorocyclopentyl)-2-(3,5-dimethyl-1H-pyrazol-1-yl)pyrimidin-4-amine] was tested, and the SC100 was “+ (+ means >1 uM)”.
With `Cc1cc(NC2CCC(F)(F)CC2)nc(-n2ccc(C(C)C)n2)n1` [Compound 218, N-(4,4-difluorocyclohexyl)-2-(3-isopropyl-1H-pyrazol-1-yl)-6-methylpyrimidin-4-amine] the SC100 was “++ (++ means 200 nM-1000 nM)”.
In the case of `COc1cccc(-c2nc(C)cc(NC3CCC(F)(F)CC3)n2)n1` [Compound 219, N-(4,4-difluorocyclohexyl)-2-(6-methoxypyridin-2-yl)-6-methylpyrimidin-4-amine], the SC100 was “+ (+ means >1 uM)”.
For `Cc1cc(NC2CCC(F)(F)CC2)nc(-n2nc(Br)cc2C)n1` [Compound 220, 2-(3-bromo-5-methyl-1H-pyrazol-1-yl)-N-(4,4-difluorocyclohexyl)-6-methylpyrimidin-4-amine], the SC100 was “++ (++ means 200 nM-1000 nM)”.
In the case of `Cc1cc(NC2CCC(F)(F)CC2)nc(-n2nc(C3CC3)cc2C)n1` [Compound 221, 2-(3-cyclopropyl-5-methyl-1H-pyrazol-1-yl)-N-(4,4-difluorocyclohexyl)-6-methylpyrimidin-4-amine], the SC100 was “+ (+ means >1 uM)”.
In the case of `Cc1cc(C)n(-c2cc(C3CC3)nc(NC3CCC(F)(F)C3)n2)n1` (stereo not shown) [Compound 222, 4-cyclopropyl-N-(3,3-difluorocyclopentyl)-6-(3,5-dimethyl-1H-pyrazol-1-yl)pyrimidin-2-amine], the SC100 was “+ (+ means >1 uM)”.
`Cc1cc(NC2CCC(F)(F)CC2)nc(-n2ccc(CF)n2)n1` [Compound 223] was tested, and the SC100 was “+ (+ means >1 uM)”.
For `Cc1cccc(-c2nc(C)cc(NC3CCC(F)(F)CC3)n2)n1` [Compound 224, N-(4,4-difluorocyclohexyl)-6-methyl-2-(6-methylpyridin-2-yl)pyrimidin-4-amine], the SC100 was “+ (+ means >1 uM)”.
With `Cc1cc(C)n(-c2nc(NC3CCC(F)(F)C3)cc(C(C)O)n2)n1` (stereo not shown) [Compound 225, 1-(6-((3,3-difluorocyclopentyl)amino)-2-(3,5-dimethyl-1H-pyrazol-1-yl)pyrimidin-4-yl)ethan-1-ol] the SC100 was “+ (+ means >1 uM)”.
With `Cc1cc(C)n(-c2cc(C3CC3)nc(NC3CCC(F)(F)CC3)n2)n1` [Compound 226, 4-cyclopropyl-N-(4,4-difluorocyclohexyl)-6-(3,5-dimethyl-1H-pyrazol-1-yl)pyrimidin-2-amine] the SC100 was “++ (++ means 200 nM-1000 nM)”.
In the case of `Cc1cc(C)n(-c2nc(NC3CCC(F)(F)CC3)cc(N3CCOC(C(C)(C)O)C3)n2)n1` (stereo not shown) [Compound 227, 2-(4-(6-((4,4-difluorocyclohexyl)amino)-2-(3,5-dimethyl-1H-pyrazol-1-yl)pyrimidin-4-yl)morpholin-2-yl)propan-2-ol], the SC100 was “++ (++ means 200 nM-1000 nM)”.
For `Cc1cc(C)n(-c2cc(NC3COC3)cc(NC3CCC(F)(F)CC3)n2)n1` [Compound 228, N2-(4,4-difluorocyclohexyl)-6-(3,5-dimethyl-1H-pyrazol-1-yl)-N4-(oxetan-3-yl)pyridine-2,4-diamine], the SC100 was “++ (++ means 200 nM-1000 nM)”.
In the case of `Cc1cc(C)n(-c2cc(CF)cc(NC3CCC(F)(F)CC3)n2)n1` [Compound 229, N-(4,4-difluorocyclohexyl)-6-(3,5-dimethyl-1H-pyrazol-1-yl)-4-(fluoromethyl)pyridin-2-amine], the SC100 was “++ (++ means 200 nM-1000 nM)”.
`Cc1cc(NC2CCC(F)(F)CC2)nc(-c2cccc(Cl)n2)n1` [Compound 230, 2-(6-chloropyridin-2-yl)-N-(4,4-difluorocyclohexyl)-6-methyl pyrimidin-4-amine] was tested, and the SC100 was “+ (+ means >1 uM)”.
In the case of `Cc1cc(NC2CCC(F)(F)CC2)nc(-c2nc(C)cs2)n1` [Compound 231, N-(4,4-difluorocyclohexyl)-6-methyl-2-(4-methylthiazol-2-yl)pyrimidin-4-amine], the SC100 was “++ (++ means 200 nM-1000 nM)”.
For `Cc1ccn(-c2nc(NC3CCC(F)(F)CC3)cc(C3COCCC3O)n2)n1` (stereo not shown) [Compound 232, 3-(6-((4,4-difluorocyclohexyl)amino)-2-(3-methyl-1H-pyrazol-1-yl)pyrimidin-4-yl)tetrahydro-2H-pyran-4-ol], the SC100 was “+ (+ means >1 uM)”.
